# Data published in PubChem BioAssay (NCI).
#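 Five concentrations, 48 hours, 96-well plates. GI50 marks 50% less growth. TGI marks complete inhibition of growth.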
# How the values were obtained:
# Experiment in all cases: growth of human tumour cells (NCI), 48 h
# [1] = test system: MDA-MB-231 breast
# [2] = test system: HT29 colon
# [3] = test system: HCT-15 colon
# [4] = test system: KM12 colon
# [5] = test system: SF-268 CNS
# [6] = test system: CAKI-1 renal
# [7] = test system: LOX IMVI melanoma
# [8] = test system: A498 renal
# [9] = test system: DU-145 prostate
# [10] = test system: RXF 393 renal
# [11] = test system: SF-295 CNS
# [12] = test system: RPMI-8226 leukemia
# [13] = test system: HCC-2998 colon
# [14] = test system: PC-3 prostate
# [15] = test system: UO-31 renal
# [16] = test system: SNB-75 CNS
# [17] = test system: OVCAR-8 ovarian
# [18] = test system: HL-60(TB) leukemia
# [19] = test system: A549 NSCLC
# [20] = test system: UACC-62 melanoma
# [21] = test system: HOP-62 NSCLC
# [22] = test system: SF-539 CNS
# [23] = test system: 786-0 renal
# [24] = test system: MOLT-4 leukemia
# [25] = test system: EKVX NSCLC
# [26] = test system: NCI-H23 lung
# [27] = test system: SW-620 colon
# [28] = test system: UACC-257 melanoma
# [29] = test system: K-562 leukemia
# [30] = test system: NCI-H522 lung
# [31] = test system: MALME-3M melanoma
# [32] = test system: NCI/ADR-RES ovarian
# [33] = test system: ACHN renal
# [34] = test system: MCF7 breast
# [35] = test system: NCI-H460 lung
# [36] = test system: OVCAR-3 ovarian
# [37] = test system: COLO 205 colon
# [38] = test system: SR leukemia
# [39] = test system: BT-549 breast
# [40] = test system: MDA-MB-435
# [41] = test system: U251 CNS
# [42] = test system: SK-OV-3 ovarian
# [43] = test system: HCT-116 colon
# [44] = test system: NCI-H226 lung
# [45] = test system: HOP-92 NSCLC
# [46] = test system: TK-10 renal
# [47] = test system: SK-MEL-28 melanoma
# [48] = test system: MDA-MB-468 breast
# [49] = test system: OVCAR-4 ovarian
# [50] = test system: CCRF-CEM leukemia
# [51] = test system: SK-MEL-2 melanoma
# [52] = test system: HS 578T breast
# [53] = test system: T-47D breast
# [54] = test system: SK-MEL-5 melanoma
# [55] = test system: M14 melanoma
# [56] = test system: IGROV1 ovarian
# [57] = test system: SNB-19 CNS
# [58] = test system: OVCAR-5 ovarian
# [59] = test system: SN12C renal
structure (smiles),measurement,setting,value
CNC(=O)c1cccc(N2CCc3c2ccc(NC(=O)Nc2ccc(N4CCN(C)CC4)c(C(F)(F)F)c2)c3F)c1,GI50,[1],2.93 µM
same,TGI,[1],7.59 µM
same,GI50,[2],1.44 µM
same,TGI,[2],8.51 µM
same,GI50,[3],3.92 µM
same,TGI,[3],9.15 µM
same,GI50,[4],0.166 µM
same,TGI,[4],6.5 µM
same,GI50,[5],4.87 µM
same,TGI,[5],12.3 µM
same,GI50,[6],6.04 µM
same,TGI,[6],12 µM
same,GI50,[7],5.15 µM
same,TGI,[7],10.3 µM
same,GI50,[8],5.36 µM
same,TGI,[8],10.4 µM
same,GI50,[9],5.68 µM
same,TGI,[9],11.3 µM
same,GI50,[10],0.976 µM
same,TGI,[10],2.65 µM
same,GI50,[11],0.717 µM
same,TGI,[11],1.7 µM
same,GI50,[12],1.59 µM
same,TGI,[12],> 36.5 µM
same,GI50,[13],5.3 µM
same,TGI,[13],10.3 µM
same,GI50,[14],3.91 µM
same,TGI,[14],12.1 µM
same,GI50,[15],5.86 µM
same,TGI,[15],10.8 µM
same,GI50,[16],1.25 µM
same,TGI,[16],6.93 µM
same,GI50,[17],7.5 µM
same,TGI,[17],16.4 µM
same,GI50,[18],7.63 µM
same,TGI,[18],25.7 µM
same,GI50,[19],5.75 µM
same,TGI,[19],13.9 µM
same,GI50,[20],5.9 µM
same,TGI,[20],10.8 µM
same,GI50,[21],5.23 µM
same,TGI,[21],11.9 µM
same,GI50,[22],1.18 µM
same,TGI,[22],4.94 µM
same,GI50,[23],1.99 µM
same,TGI,[23],8.25 µM
same,GI50,[24],1.7 µM
same,TGI,[24],20.9 µM
same,GI50,[25],5.05 µM
same,TGI,[25],10.2 µM
same,GI50,[26],5.97 µM
same,TGI,[26],11.8 µM
same,GI50,[27],1.19 µM
same,TGI,[27],5.23 µM
same,GI50,[28],6.1 µM
same,TGI,[28],12 µM
same,GI50,[29],6.69 µM
same,TGI,[29],> 36.5 µM
same,GI50,[30],6.46 µM
same,TGI,[30],13.9 µM
same,GI50,[31],4.17 µM
same,TGI,[31],8.7 µM
same,GI50,[32],7.02 µM
same,TGI,[32],17.5 µM
same,GI50,[33],5.61 µM
same,TGI,[33],10.5 µM
same,GI50,[34],4.63 µM
same,TGI,[34],10.3 µM
same,GI50,[35],5.27 µM
same,TGI,[35],11.6 µM
same,GI50,[36],5.04 µM
same,TGI,[36],11 µM
same,GI50,[37],6.46 µM
same,TGI,[37],17.5 µM
same,GI50,[38],5.74 µM
same,TGI,[38],> 36.5 µM
same,GI50,[39],5.14 µM
same,TGI,[39],11.1 µM
same,GI50,[40],5.28 µM
same,TGI,[40],10.5 µM
same,GI50,[41],3.73 µM
same,TGI,[41],8.59 µM
same,GI50,[42],5.93 µM
same,TGI,[42],11.7 µM
same,GI50,[43],5.06 µM
same,TGI,[43],13.8 µM
same,GI50,[44],6.12 µM
same,TGI,[44],14.6 µM
same,GI50,[45],5.36 µM
same,TGI,[45],11.6 µM
same,GI50,[46],6.21 µM
same,TGI,[46],11.6 µM
same,GI50,[47],4.99 µM
same,TGI,[47],9.81 µM
same,GI50,[48],5.41 µM
same,TGI,[48],11.3 µM
same,GI50,[49],5.07 µM
same,TGI,[49],11.5 µM
same,GI50,[50],5.43 µM
same,TGI,[50],29.3 µM
same,GI50,[51],6.15 µM
same,TGI,[51],11.8 µM
same,GI50,[52],1.46 µM
same,TGI,[52],8.54 µM
same,GI50,[53],6.33 µM
same,TGI,[53],19.3 µM
same,GI50,[54],5.43 µM
same,TGI,[54],10.4 µM
same,GI50,[55],6.78 µM
same,TGI,[55],14.3 µM
same,GI50,[56],6.21 µM
same,TGI,[56],11.7 µM
same,GI50,[57],5.48 µM
same,TGI,[57],10.7 µM
same,GI50,[58],5.45 µM
same,TGI,[58],10.3 µM
same,GI50,[59],5.81 µM
same,TGI,[59],11.1 µM
COc1ccc(-c2nc3ccc(-c4nnc(SCc5ccccc5)o4)cc3[nH]2)cc1,GI50,[1],2.55 µM
same,TGI,[1],6.3 µM
same,GI50,[2],3.48 µM
same,TGI,[2],12 µM
same,GI50,[3],2.97 µM
same,TGI,[3],11.9 µM
same,GI50,[4],11.3 µM
same,TGI,[4],> 100 µM
same,GI50,[5],3.53 µM
same,TGI,[5],13.7 µM
same,GI50,[6],1.98 µM
same,TGI,[6],3.81 µM
same,GI50,[7],1.91 µM
same,TGI,[7],3.73 µM
same,GI50,[8],2.17 µM
same,TGI,[8],3.97 µM
same,GI50,[9],6.89 µM
same,TGI,[9],23.4 µM
same,GI50,[10],2.2 µM
same,TGI,[10],7.45 µM
same,GI50,[11],2.07 µM
same,TGI,[11],4.42 µM
same,GI50,[12],2.96 µM
same,TGI,[12],17.4 µM
same,GI50,[13],13.2 µM
same,TGI,[13],78.9 µM
same,GI50,[14],3.1 µM
same,TGI,[14],11.2 µM
same,GI50,[15],4.16 µM
same,TGI,[15],16.1 µM
same,GI50,[16],1.66 µM
same,TGI,[16],3.27 µM
same,GI50,[17],1.91 µM
same,TGI,[17],3.87 µM
same,GI50,[18],2.79 µM
same,TGI,[18],15.5 µM
same,GI50,[19],3.48 µM
same,TGI,[19],13.8 µM
same,GI50,[20],2.15 µM
same,TGI,[20],6.05 µM
same,GI50,[21],3.17 µM
same,TGI,[21],9.51 µM
same,GI50,[22],1.73 µM
same,TGI,[22],3.22 µM
same,GI50,[23],1.97 µM
same,TGI,[23],4.26 µM
same,GI50,[24],3.58 µM
same,TGI,[24],> 100 µM
same,GI50,[25],3.98 µM
same,TGI,[25],16.6 µM
same,GI50,[26],4.21 µM
same,TGI,[26],19.8 µM
same,GI50,[27],7.02 µM
same,TGI,[27],44.2 µM
same,GI50,[28],4.81 µM
same,TGI,[28],23.1 µM
same,GI50,[29],2.9 µM
same,TGI,[29],24.8 µM
same,GI50,[30],2.27 µM
same,TGI,[30],7.08 µM
same,GI50,[31],1.81 µM
same,TGI,[31],3.58 µM
same,GI50,[32],2.51 µM
same,TGI,[32],7.69 µM
same,GI50,[33],2.48 µM
same,TGI,[33],6 µM
same,GI50,[34],2.86 µM
same,TGI,[34],12.8 µM
same,GI50,[35],3.71 µM
same,TGI,[35],16.3 µM
same,GI50,[36],2.82 µM
same,TGI,[36],6.37 µM
same,GI50,[37],15.9 µM
same,TGI,[37],89.1 µM
same,GI50,[38],4.76 µM
same,TGI,[38],> 100 µM
same,GI50,[39],3.27 µM
same,TGI,[39],7.64 µM
same,GI50,[40],3.05 µM
same,TGI,[40],11.3 µM
same,GI50,[41],2.07 µM
same,TGI,[41],4.6 µM
same,GI50,[42],5.51 µM
same,TGI,[42],21.5 µM
same,GI50,[43],3.66 µM
same,TGI,[43],15.7 µM
same,GI50,[44],1.76 µM
same,TGI,[44],3.84 µM
same,GI50,[45],6.46 µM
same,TGI,[45],24 µM
same,GI50,[46],3.13 µM
same,TGI,[46],8.83 µM
same,GI50,[47],3.14 µM
same,TGI,[47],12.2 µM
same,GI50,[48],2.36 µM
same,TGI,[48],7.36 µM
same,GI50,[49],2.12 µM
same,TGI,[49],5.08 µM
same,GI50,[50],2.82 µM
same,TGI,[50],19.6 µM
same,GI50,[51],2.44 µM
same,TGI,[51],7.73 µM
same,GI50,[52],2.77 µM
same,TGI,[52],7.29 µM
same,GI50,[53],2.02 µM
same,TGI,[53],4.84 µM
same,GI50,[54],2.64 µM
same,TGI,[54],9.41 µM
same,GI50,[55],4.25 µM
same,TGI,[55],26.5 µM
same,GI50,[56],10.7 µM
same,TGI,[56],23.9 µM
same,GI50,[57],7.81 µM
same,TGI,[57],21 µM
same,GI50,[58],15.6 µM
same,TGI,[58],38.5 µM
same,GI50,[59],2.07 µM
same,TGI,[59],4.88 µM
